According to patent US20120065228A1, “COMPOSITIONS AND METHODS FOR TREATING, CONTROLLING, REDUCING, OR AMELIORATING OCULAR INFLAMMATORY WITH LOWER RISK OF INCREASED INTRAOCULAR PRESSURE” (priority 2007, published 2012):
“And” between values parts separate entries of the source, which are not always exact repeats. Identical values can stand only once.

What was measured:
[1] = system: PGE2 in the aqueous humor; experiment: Prostaglandin E2 (PGE2) measurement in aqueous humor, rabbit paracentesis model; type: in vivo; details: for PGE2 in aqueous humor, statistical significance versus CTR: p<0.05; for PGE2 in aqueous humor, Mean / PGE2 in aqueous humor: second paracentesis; for PGE2 in aqueous humor: individual eyes
Method: Each rabbit was placed in a restraint device and tagged with the alphanumeric code. The formulations were instilled (50 μl) into the conjunctival sac of both eyes 180, 120, 90 and 30 min before the first paracentesis; then 15, 30, 90 min after the first paracentesis. To perform the first paracentesis the animals were anaesthetized by intravenous injection of 5 mg/kg Zoletil® (Virbac; 2.5 mg/kg tiletamine HCl and 2.5 mg/kg zolazepam HCl) and one drop of local anesthetic (Novesina®, Novartis) was administered to the eye. Anterior chamber paracentesis was performed with a 26 G needle attached to a tuberculin syringe; the needle was introduced into the anterior chamber through the cornea, taking care not to damage the tissues. Two hours after the ® first paracentesis, the animals were sacrificed with 0.4 ml Tanax® (Intervet International B.V.) and the second paracentesis was performed. About 100 μl of aqueous humor were removed at the second paracentesis. Aqueous humor was immediately split in four aliquots and stored at −80° C. until analysis. Then both eyes were enucleated and the iris-ciliary body was carefully excised, placed in polypropylene tubes, and stored at −80° C. until analysis.
For the quantitative determination of PGE2 in the aqueous humor we used the PGE2 Immunoassay kit (R&D Systems; Cat. No. KGE004; Lot. No. 240010). Eleven microliters or 16 μl of aqueous humor were diluted to 110 μl or 160 μl with the calibrator diluent solution provided with the kit. One hundred microliters of samples and of standards were load into a 96-well plate and recorded in a plate layout. Samples were treated following the assay procedure described in the kit. A microplate reader (GDV, Italy; model DV 990 B/V6) set at 450 nm (wavelength correction at 540 nm) was used for making the calibration and analyzing the samples.
Pupillary diameter, PGE2, protein, PMN, and MPO were expressed as mean±SEM. Statistical analysis was performed using one way ANOVA followed by a Newman-Keuls post hoc test. Clinical score was expressed as % of eyes and the statistical analysis was performed using Kruskal-Wallis followed by a Dunn post hoc test. P<0.05 was considered statistically significant in both cases. Prism 4 software (GraphPad Software, Inc.) was used for the analysis and graphs.

[2] = system: intraocular pressure (IOP); experiment: Clinical dose ranging study after cataract surgery: intraocular pressure (safety); type: in vivo, human
Text: There were 8 treatment groups in this study, consisting of three drug doses, vehicle and three dosing frequencies (see also Table 4-1): • Group A: 1% BOL-303242-X ophthalmic suspension, two times per day (BID) • Group B: 2% BOL-303242-X ophthalmic suspension, one time per day (QD) • Group C: 2% BOL-303242-X ophthalmic suspension, BID • Group D: 2% BOL-303242-X ophthalmic suspension, four times per day (QID) • Group E: 3% BOL-303242-X ophthalmic suspension, QD • Group F: 3% BOL-303242-X ophthalmic suspension, BID • Group G: 3% BOL-303242-X ophthalmic suspension, QID • Group H: Vehicle for BOL-303242-X (divided equally into QID, BID, and QD)
Subjects self-administered study drug, instilling 1 to 2 drops of study drug into the study eye: QID at approximately 4 hour intervals, BID at approximately 12 hour intervals, or QD once in the morning, for 14 days. The initial dose occurred in the clinic at Visit 3 and the final dose was on the day before Visit 6 (postoperative Day 15±1 day). Subjects were examined and evaluated according to the following schedule:
Visit 1 (screening), Visit 2 (cataract surgery), Visit 3 (postoperative Day 1), Visit 4 (postoperative Day 3±1 day), Visit 5 (postoperative Day 8±1 day), Visit 6 (postoperative Day 15±1 day), Visit 7 (postoperative Day 18±1 day). […]

SMILES	PGE2 in aqueous humor, statistical significance versus CTR ([1]; 0.1% topical formulation)	PGE2 in aqueous humor, Mean ([1]; 0.1% topical formulation) [ng/mL]	PGE2 in aqueous humor ([1]; 0.1% topical formulation, listed as BOL)	PGE2 in aqueous humor, statistical significance versus CTR ([1]; 0.5% topical formulation)	PGE2 in aqueous humor, Mean ([1]; 0.5% topical formulation) [ng/mL]	PGE2 in aqueous humor ([1]; 0.5% topical formulation, listed as BOL)	PGE2 in aqueous humor, Mean ([1]; 1% topical formulation) [ng/mL]	PGE2 in aqueous humor ([1]; 1% topical formulation, listed as BOL)	Mean IOP values among groups ([2]; 2% QID and 3% QD groups, Visit 4 (postoperative Day 3) to Visit 7 (postoperative Day 18))	Proportion of subjects with mean IOP changes from baseline of ≧5 mmHg or ≧10 mmHg, compared to vehicle ([2]; any dose groups at any study visits)	PGE2 in aqueous humor ([1]; 0.1% topical formulation, listed as Dex)
Cc1ccc2c(NCC(O)(CC(C)(C)c3cc(F)cc4c3OCC4)C(F)(F)F)cccc2n1 (stereo not drawn) [BOL-303242-X]	statistically significant versus CTR	1.452	1.62 ng/mL and 1.88 ng/mL and 2.15 ng/mL and 0.70 ng/mL and 1.34 ng/mL and 1.03 ng/mL	statistically significant versus CTR	1.384	2.31 ng/mL and 2.59 ng/mL and 0.53 ng/mL and 0.75 ng/mL and 0.80 ng/mL and 1.62 ng/mL and 1.09 ng/mL	2.168	0.50 ng/mL and 1.87 ng/mL and 1.71 ng/mL and 4.04 ng/mL and 1.11 ng/mL and 3.78 ng/mL	lowest mean IOP values	no statistically significant differences	–
C[C@@H]1C[C@H]2[C@@H]3CCC4=CC(=O)C=C[C@]4(C)[C@@]3(F)[C@@H](O)C[C@]2(C)[C@@]1(O)C(=O)CO [dexamethasone, reference compound]	–	2.263	–	–	–	–	–	–	–	–	2.51 ng/ml and 2.32 ng/ml (2×) and 2.10 ng/ml and 3.03 ng/ml and 1.30 ng/ml
